According to PubChem BioAssay AID2060489 (Molecular Pharmacology Branch, DTP, NCI, 2025):

Tested on: 922993-354-T-J3-PDC complex spheroids, viability
Test: Anticancer human tumor 922993-354-T-J3-PDC patient-derived endometrial carcinoma cell line growth inhibition [GQUAD]
Settings: for IC50: curve of first compound; for viability, T/C: stronger effect = lower value
Method in brief: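 Tumor cells were grown as complex spheroids with HUVEC endothelial cells and mesenchymal stem cells as stroma. G-quadruplex stabilizers were combined with targeted agents over half-log dilutions from near the clinical Cmax, or from 10 microM.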

[1] = second compound 0.0316 µM, first compound 0.0316 µM
[2] = second compound 0.0316 µM, first compound 0.1 µM
[3] = second compound 0.0316 µM, first compound 0.316 µM
[4] = second compound 0.0316 µM, first compound 1 µM
[5] = second compound 0.0316 µM, first compound 3.16 µM
[6] = second compound 0.0316 µM, first compound 10 µM
[7] = second compound 0.1 µM, first compound 0.0316 µM
[8] = second compound 0.1 µM, first compound 0.1 µM
[9] = second compound 0.1 µM, first compound 0.316 µM
[10] = second compound 0.1 µM, first compound 1 µM
[11] = second compound 0.1 µM, first compound 3.16 µM
[12] = second compound 0.1 µM, first compound 10 µM
[13] = second compound 0.316 µM, first compound 0.0316 µM
[14] = second compound 0.316 µM, first compound 0.1 µM
[15] = second compound 0.316 µM, first compound 0.316 µM
[16] = second compound 0.316 µM, first compound 1 µM
[17] = second compound 0.316 µM, first compound 3.16 µM
[18] = second compound 0.316 µM, first compound 10 µM
[19] = second compound 1 µM, first compound 0.0316 µM
[20] = second compound 1 µM, first compound 0.1 µM
[21] = second compound 1 µM, first compound 0.316 µM
[22] = second compound 1 µM, first compound 1 µM
[23] = second compound 1 µM, first compound 3.16 µM
[24] = second compound 1 µM, first compound 10 µM
[25] = second compound 3.16 µM, first compound 0.0316 µM
[26] = second compound 3.16 µM, first compound 0.1 µM
[27] = second compound 3.16 µM, first compound 0.316 µM
[28] = second compound 3.16 µM, first compound 1 µM
[29] = second compound 3.16 µM, first compound 3.16 µM
[30] = second compound 3.16 µM, first compound 10 µM
[31] = second compound 10 µM, first compound 0.0316 µM
[32] = second compound 10 µM, first compound 0.1 µM
[33] = second compound 10 µM, first compound 0.316 µM
[34] = second compound 10 µM, first compound 1 µM
[35] = second compound 10 µM, first compound 3.16 µM
[36] = second compound 10 µM, first compound 10 µM
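Note: spheroids exposed to compounds for seven days.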
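Throughout, for viability, T/C: 100% = DMSO vehicle control viability.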

In the case of C=CCn1c(=O)c2cnc(Nc3ccc(N4CCN(C)CC4)cc3)nc2n1-c1cccc(C(C)(C)O)n1 + Cc1cnc(CNC(=O)c2c(=O)c3ccc(N4CCCN(C)CC4)nc3n3c2sc2ccccc23)cn1, the IC50 (second compound 0.0316 µM) is reported as 2610 nM, the IC50 (second compound 0.1 µM) is reported as 1060 nM and the IC50 (second compound 0.316 µM) is reported as under 31.6 nM. The IC50 (second compound 1 µM) was under 31.6 nM, the IC50 (second compound 3.16 µM) was 828 nM and the IC50 (second compound 10 µM) was under 31.6 nM. For the same compound, the viability, T/C [1] was 92.1%, the viability, T/C [2] was 70.7% and the viability, T/C [3] was 81.6%. It also gave a viability, T/C [4] of 78.6%, a viability, T/C [5] of 44.3% and a viability, T/C [6] of 28.4%. For the same compound, the viability, T/C [7] was 69.1%, the viability, T/C [8] was 60% and the viability, T/C [9] was 55.6%. For the same compound, the viability, T/C [10] was 51.5%, the viability, T/C [11] was 23.1% and the viability, T/C [12] was 25%. For the same compound, the viability, T/C [13] was 50.9%, the viability, T/C [14] was 42% and the viability, T/C [15] was 32.1%. The viability, T/C [16] was 36.4%, the viability, T/C [17] was 41.3% and the viability, T/C [18] was 33.8%. The viability, T/C [19] was 42.8%, the viability, T/C [20] was 49.4% and the viability, T/C [21] was 39.2%. The viability, T/C [22] was 39.4%, the viability, T/C [23] was 47.5% and the viability, T/C [24] was 44.1%. For the same compound, the viability, T/C [25] was 56%, the viability, T/C [26] was 49.9% and the viability, T/C [27] was 49.5%. For the same compound, the viability, T/C [28] was 41.4%, the viability, T/C [29] was 50.5% and the viability, T/C [30] was 53.8%. The viability, T/C [31] was 47.7%, the viability, T/C [32] was 36% and the viability, T/C [33] was 45.7%. It also gave a viability, T/C [34] of 40.8%, a viability, T/C [35] of 40.9% and a viability, T/C [36] of 39.1%.
CC(C)(O)C1CCC(Nc2ccc3ncc(-c4cccc(C(F)(F)F)c4)n3n2)CC1 (stereo not drawn) + Cc1cnc(CNC(=O)c2c(=O)c3ccc(N4CCCN(C)CC4)nc3n3c2sc2ccccc23)cn1 showed an IC50 (second compound 0.0316 µM) of over 10000 nM, an IC50 (second compound 0.1 µM) of over 10000 nM and an IC50 (second compound 0.316 µM) of 31.6 nM. For the same compound, the IC50 (second compound 1 µM) was under 31.6 nM, the IC50 (second compound 3.16 µM) was under 31.6 nM and the IC50 (second compound 10 µM) was under 31.6 nM. For the same compound, the viability, T/C [1] was 89.5%, the viability, T/C [2] was 97.4% and the viability, T/C [3] was 67.9%. It also gave a viability, T/C [4] of 90.6%, a viability, T/C [5] of 105% and a viability, T/C [6] of 84.1%. The viability, T/C [7] was 69%, the viability, T/C [8] was 71.9% and the viability, T/C [9] was 51.2%. The viability, T/C [10] was 59.6%, the viability, T/C [11] was 65.8% and the viability, T/C [12] was 67.6%. For the same compound, the viability, T/C [13] was 48.6%, the viability, T/C [14] was 58.8% and the viability, T/C [15] was 48.4%. The viability, T/C [16] was 47.5%, the viability, T/C [17] was 65.9% and the viability, T/C [18] was 58.2%. It also gave a viability, T/C [19] of 47.8%, a viability, T/C [20] of 51.8% and a viability, T/C [21] of 40.4%. The viability, T/C [22] was 53.1%, the viability, T/C [23] was 57.4% and the viability, T/C [24] was 54.8%. For the same compound, the viability, T/C [25] was 40.7%, the viability, T/C [26] was 43.9% and the viability, T/C [27] was 38.8%. For the same compound, the viability, T/C [28] was 47.4%, the viability, T/C [29] was 41.4% and the viability, T/C [30] was 37.5%. The viability, T/C [31] was 36.7%, the viability, T/C [32] was 47.4% and the viability, T/C [33] was 31%. The viability, T/C [34] was 18.5%, the viability, T/C [35] was 9.55% and the viability, T/C [36] was 4.71%.
In the case of Cc1[nH]c2ccccc2c1CCNCc1ccc(/C=C/C(=O)NO)cc1 + Cc1cnc(CNC(=O)c2c(=O)c3ccc(N4CCCN(C)CC4)nc3n3c2sc2ccccc23)cn1, the IC50 (second compound 0.0316 µM) is reported as over 316 nM, the IC50 (second compound 0.1 µM) is reported as 109 nM and the IC50 (second compound 0.316 µM) is reported as under 0.999 nM. For the same compound, the IC50 (second compound 1 µM) was under 0.999 nM, the IC50 (second compound 3.16 µM) was under 0.999 nM and the IC50 (second compound 10 µM) was under 0.999 nM. The viability, T/C (second compound 0.0316 µM, first compound 0.000999 µM) was 81.9%, the viability, T/C (second compound 0.0316 µM, first compound 0.00316 µM) was 86.5% and the viability, T/C (second compound 0.0316 µM, first compound 0.00999 µM) was 108%. For the same compound, the viability, T/C [1] was 72.6%, the viability, T/C (second compound 0.0316 µM, first compound 0.0999 µM) was 73.5% and the viability, T/C [3] was 54.3%. For the same compound, the viability, T/C (second compound 0.1 µM, first compound 0.000999 µM) was 55.7%, the viability, T/C (second compound 0.1 µM, first compound 0.00316 µM) was 64.3% and the viability, T/C (second compound 0.1 µM, first compound 0.00999 µM) was 57.6%. The viability, T/C [7] was 55.8%, the viability, T/C (second compound 0.1 µM, first compound 0.0999 µM) was 47% and the viability, T/C [9] was 45.4%. It also gave a viability, T/C (second compound 0.316 µM, first compound 0.000999 µM) of 54.2%, a viability, T/C (second compound 0.316 µM, first compound 0.00316 µM) of 33.7% and a viability, T/C (second compound 0.316 µM, first compound 0.00999 µM) of 44.2%. It also gave a viability, T/C [13] of 34.7%, a viability, T/C (second compound 0.316 µM, first compound 0.0999 µM) of 40.9% and a viability, T/C [15] of 30.8%. The viability, T/C (second compound 1 µM, first compound 0.000999 µM) was 42.6%, the viability, T/C (second compound 1 µM, first compound 0.00316 µM) was 46.7% and the viability, T/C (second compound 1 µM, first compound 0.00999 µM) was 38.9%. For the same compound, the viability, T/C [19] was 34.9%, the viability, T/C (second compound 1 µM, first compound 0.0999 µM) was 33.9% and the viability, T/C [21] was 31.2%. For the same compound, the viability, T/C (second compound 3.16 µM, first compound 0.000999 µM) was 40.9%, the viability, T/C (second compound 3.16 µM, first compound 0.00316 µM) was 48.6% and the viability, T/C (second compound 3.16 µM, first compound 0.00999 µM) was 41.6%. It also gave a viability, T/C [25] of 41.7%, a viability, T/C (second compound 3.16 µM, first compound 0.0999 µM) of 29.9% and a viability, T/C [27] of 24.6%. For the same compound, the viability, T/C (second compound 10 µM, first compound 0.000999 µM) was 36%, the viability, T/C (second compound 10 µM, first compound 0.00316 µM) was 40.3% and the viability, T/C (second compound 10 µM, first compound 0.00999 µM) was 44.8%. The viability, T/C [31] was 30%, the viability, T/C (second compound 10 µM, first compound 0.0999 µM) was 38.9% and the viability, T/C [33] was 6.92%.
Work on O=C(NO)c1cnc(N2CCN(S(=O)(=O)c3ccc4ccccc4c3)CC2)nc1 + Cc1cnc(CNC(=O)c2c(=O)c3ccc(N4CCCN(C)CC4)nc3n3c2sc2ccccc23)cn1 yielded an IC50 (second compound 0.0316 µM) of 482 nM, an IC50 (second compound 0.1 µM) of 84.6 nM and an IC50 (second compound 0.316 µM) of under 31.6 nM. For the same compound, the IC50 (second compound 1 µM) was under 31.6 nM, the IC50 (second compound 3.16 µM) was under 31.6 nM and the IC50 (second compound 10 µM) was under 31.6 nM. It also gave a viability, T/C [1] of 80.3%, a viability, T/C [2] of 85% and a viability, T/C [3] of 59.2%. For the same compound, the viability, T/C [4] was 30.6%, the viability, T/C [5] was 5.35% and the viability, T/C [6] was 0.97%. It also gave a viability, T/C [7] of 63.8%, a viability, T/C [8] of 47.5% and a viability, T/C [9] of 32.4%. It also gave a viability, T/C [10] of 20.5%, a viability, T/C [11] of 8.63% and a viability, T/C [12] of 1.81%. The viability, T/C [13] was 46.4%, the viability, T/C [14] was 32% and the viability, T/C [15] was 36.2%. For the same compound, the viability, T/C [16] was 21.2%, the viability, T/C [17] was 11.2% and the viability, T/C [18] was 2.24%. It also gave a viability, T/C [19] of 44.3%, a viability, T/C [20] of 45.7% and a viability, T/C [21] of 28.4%. For the same compound, the viability, T/C [22] was 12.4%, the viability, T/C [23] was 5.24% and the viability, T/C [24] was 0.22%. For the same compound, the viability, T/C [25] was 42%, the viability, T/C [26] was 36.8% and the viability, T/C [27] was 24.9%. It also gave a viability, T/C [28] of 4.62%, a viability, T/C [29] of 0.18% and a viability, T/C [30] of 0.17%. It also gave a viability, T/C [31] of 38.7%, a viability, T/C [32] of 25% and a viability, T/C [33] of 14.2%. The viability, T/C [34] was 0.2%, the viability, T/C [35] was 0.21% and the viability, T/C [36] was 0.22%.
